Measurements: US7122570B2, “Tetrahydrocarbazol derivatives as ligands for G-protein-coupled receptors (GPCR)” (Zentaris AG, priority 2001, dated 2006)

Experiments:
[1] = target: T1, hGnRH-Receptor (Homo sapiens, UniProt P30968); assay: GnRH receptor assay: competition binding with 125I-labeled buserelin on cell membranes; conditions: competition with 125I-buserelin
T1 construct: expressed in transfected cells; host or cells: CHO-3 cells (Schmid et al., J. Biol. Chem. 275 (2000), 9193-9200), membrane preparation
T1 sequence (P30968 1-328): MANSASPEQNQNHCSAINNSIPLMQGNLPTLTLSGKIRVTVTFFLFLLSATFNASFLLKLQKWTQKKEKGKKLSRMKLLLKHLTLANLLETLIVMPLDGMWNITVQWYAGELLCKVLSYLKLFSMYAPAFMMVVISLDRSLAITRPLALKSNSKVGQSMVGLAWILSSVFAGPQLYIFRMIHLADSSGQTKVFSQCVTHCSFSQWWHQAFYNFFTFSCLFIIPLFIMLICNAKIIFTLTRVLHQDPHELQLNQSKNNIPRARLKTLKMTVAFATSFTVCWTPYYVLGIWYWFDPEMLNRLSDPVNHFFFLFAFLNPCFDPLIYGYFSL
Protocol: Buserelin is ordered from Welding (Frankfurt/Main, Germany). The compound is labeled with ^125I by use of the chloramine T-method and Na^125I (4000 Ci/mmol; Amersham-Buchler, Brunswick, Germany). The labeled substance is purified by reverse phase HPLC on a Spherisorb ODS II column (250×4 mm, particle size 3 μm) by elution with 50% acetonitrile/0.15% trifluoroacetic acid at a flow rate of 0.5 ml/minute. The specific activity is 2000 Ci/mmol.
Alpha T3-1 cells (Bilezikjian et al., Mol. Endocrinol 5 (1991), 347–355) are cultivated in DMEM medium (Gibco-BRL, Eggenstein-Leopoldshafen, Germany) with penicillin (100 I.U./ml), streptomycin (0.1 mg/ml) and glutamine (0.01 mol/l) and 10% fetal calf serum (FCS; PAA Laboratories, Coelbe, Germany) on plastic tissue culture plates (Nunc, 245×245×20 mm). CHO-3 cells (Schmid et al., J. Biol. Chem. 275 (2000), 9193–9200) are cultivated under identical conditions, apart from the fact that Ham's F12 medium (Gibco-BRL) is used.
Ten confluent cell culture plates are flushed twice with 50 ml of phosphate-buffered salt solution (PBS). The cells are harvested by scraping them off with a rubber scraper in 5 ml of PBS and sedimented by centrifuging in a laboratory centrifuge (Heraeus) at 800 rpm for 10 minutes. The cell pellet is resuspended in 5 ml of 0.25 mol/l of saccharose/0.01 mol/l of triethanolamine, pH 7.4. The cells are lysed by three cycles of freezing in dry ice/ethanol bath and thawing at room temperature. The lysate is centrifuged at 900 rpm for 10 minutes, and the sediment is discarded. The supernatant is centrifuged at 18,000 rpm in a Sorvall SS34 rotor for 30 minutes. The pellet (cell membranes) is suspended by Potters in 5 ml of assay buffer (0.25 mol/l of saccharose, 0.01 mol/l of triethanolamine, pH 7.5, 1 mg/ml of ovalbumin) and stored in 200 μl of aliquots at −20° C. The determination of protein is carried out according to the Bradford method (Anal. Biochem. 72 (1976), 248–254).
Binding studies for competition curves are performed as triplicates. A test sample contains 60 μl of cell membrane suspension (10 μg of protein for αT3-1 cells or 40 μg of protein for CHO3 cells), 20 μl of ^125I-labeled buserelin (100,000 Ipm per sample for competition curves and between 1,500 and 200,000 Ipm for saturation experiments) and 20 μl of test buffer or test compound solution. The test compounds are dissolved in distilled water or 50% ethanol. Serial dilutions (5×10^−6 mol/l to […]) are produced in test buffer. The unspecific binding is determined in the presence of excess unlabeled buserelin (10^−6 mol/1). The test samples are incubated for 30 minutes at room temperature. Bonded and free ligands are separated by filtration (Whatman GF/C-filter, 2.5 cm diameter) with use of an Amicon 10x collecting device and washed twice with 5 ml of 0.02 mol/l of Tris/HCl, pH 7.4. The filters are moistened with 0.3% polyethylenimine (Serva; Heidelberg, Germany) for 30 minutes to reduce the unspecific binding. The radioactivity that was held up by the filter is determined in a 5-channel gamma-counter (Wallac-LKB 1470 Wizard).
In the table below, the IC50 values that are obtained for the preferred compounds, as defined above, are indicated.

[2] = target: T2, GnRH receptor (Homo sapiens, UniProt P30968); assay: Ca2+ release, human; assay type: cell-based; conditions: read-out: Ca^2+ Release Human IC50
T2 sequence (P30968 1-328): T1 sequence (P30968 1-328)

| SMILES | IC50 [1] [µM] | IC50 [2] [µM] |
| --- | --- | --- |
| CC(C)C(NC(=O)C1(NC(=O)C(Cc2ccccc2)c2ccccc2)CCc2[nH]c3ccccc3c2C1)C(=O)NC(CC(N)=O)C(N)=O [Compound 18, N-[[(3R)-2,3,4,9-Tetrahydro-3-[(1-oxo-2,3-diphenyl-propyl)amino]-1H-carbaol-3-yl]-carbonyl]-L-valyl-L-aspartamide] | 0.9 | 5 |
| CC[C@H](C)[C@H](NC(=O)CCc1ccccc1)C(=O)N[C@]1(C(=O)N[C@H](C(=O)N[C@@H](CC(N)=O)C(N)=O)C(C)C)CCc2[nH]c3ccccc3c2C1 [Compound 22, N-[[(3R)-2,3,4,9-Tetrahydro-3-[[(2S,3S)-3-methyl-1-oxo-2-[(1-oxo-3-phenylpropyl)amino]-pentyl]amino]-1H-carbazol-3-yl]carbonyl]-L-valyl-L-aspartamide] | 2 | 1 |
| CC[C@H](C)[C@H](NC(=O)OCc1ccccc1)C(=O)N[C@]1(C(=O)N[C@H](C(=O)Nc2ccc(C(N)=O)cc2)C(C)C)CCc2[nH]c3ccccc3c2C1 [Compound 45, Phenylmethyl [(1S,2S)-1-[[[(3R)-3-[[[(1S)-1-[[[4-(aminocarbonyl)phenyl]amino]carbonyl]-2-methylpropyl]amino]carbonyl]-2,3,4,9-tetrahydro-1H-carbazol-3-yl]amino]carbonyl]-2-methylbutyl]carbamate] | 0.3 | 1 |
| CC[C@H](C)[C@H](NC(=O)OCc1ccccc1)C(=O)N[C@]1(C(=O)N[C@H](C(N)=O)C(C)C)CCc2[nH]c3ccccc3c2C1 [Compound 58, Phenylmethyl [(1S,2S)-1-[[[(3R)-3-[[[(1S)-1-(aminocarbonyl)-2-methylpropyl]amino]-carbonyl]-2,3,4,9-tetrahydro-1H-carbazol-3-yl]-amino]carbonyl]-2-methylbutyl]carbamate] | 0.3 | 0.37 |
| CC[C@H](C)[C@H](NC(=O)[C@@]1(NC(=O)[C@@H](NC(=O)OCc2ccccc2)[C@@H](C)CC)CCc2[nH]c3ccccc3c2C1)C(N)=O [Compound 64, Phenylmethyl [(1S,2S)-1-[[[(3R)-3-[[[(1S,2S)-1-(aminocarbonyl)-2-methylbutyl]amino]-carbonyl]-2,3,4,9-tetrahydro-1H-carbazol-3-yl]-amino]carbonyl]-2-methylbutyl]carbamate] | 1.7 | 1.5 |
| CC(C)[C@H](NC(=O)[C@@]1(NC(=O)Cc2ccc(F)cc2)CCc2[nH]c3ccccc3c2C1)C(N)=O [Compound 91, (3R)-N-[(1S)-1-(Aminocarbonyl)-2-methyl-propyl]-3-[[(4-fluorophenyl)acetyl]amino]-2,3,4,9-tetrahydro-1H-carbazole-3-carboxamide] | 2.4 | 2 |
| CC(C)[C@H](NC(=O)[C@@]1(NC(=O)Cc2cccc(Br)c2)CCc2[nH]c3ccccc3c2C1)C(N)=O [Compound 96, (3R)-N-[(1S)-1-(Aminocarbonyl)-2-methyl-propyl]-3-[[(3-bromophenyl)acetyl]-amino]-2,3,4,9-tetrahydro-1H-carbazole-3-carboxamide] | 4 | 3 |
| CC[C@H](C)[C@H](NC(=O)OCc1ccccc1)C(=O)N[C@]1(C(=O)N[C@H](C(N)=O)C(C)C)CCc2[nH]c3c(OC)cccc3c2C1 [Compound 147a, Phenylmethyl [(1S,2S)-1-[[[(3R)-3-[[[(1S)-1-(aminocarbonyl)-2-methypropyl]amino]-carbonyl]-2,3,4,9-tetrahydro-8-methoxy-1H-carbazol-3-yl]amino]carbonyl]-2-methylbutyl]carbamate] | 0.076 | 0.25 |
| CC[C@H](C)[C@H](NC(=O)OCc1ccccc1)C(=O)N[C@]1(C(=O)N[C@H](C(N)=O)C(C)C)CCc2[nH]c3ccc(Cl)cc3c2C1 [Compound 148a, Phenylmethyl [(1S,2S)-1-[[[(3R)-3-[[[(1S)-1-(aminocarbonyl)-2-methylpropyl]amino]-carbonyl]-6-chloro-2,3,4,9-tetrahydro-1H-carbazol-3-yl]amino]carbonyl]-2-methylbutyl]carbamate] | 0.08 | 0.14 |
| CC[C@H](C)[C@H](NC(=O)OCc1ccccc1)C(=O)N[C@]1(C(=O)N[C@H](C(N)=O)C(C)C)CCc2[nH]c3c(C)cccc3c2C1 [Compound 150a, Phenylmethyl [(1S,2S)-1-[[[(3R)-3-[[[(1S)-1-(aminocarbonyl)-2-methylpropyl]amino]-carbonyl]-2,3,4,9-tetrahydro-8-methyl-1H-carbazol-3-yl]amino]carbonyl]-2-methylbutyl]carbamate] | 0.11 | 0.28 |
| CC(C)C(NC(=O)C1(NC(=O)Cc2ccc3ccccc3c2)CCc2[nH]c3ccccc3c2C1)C(N)=O [Compound 161b, (3S)-N-[(1S)-1-(Aminocarbonyl)-2-methyl-propyl]-2,3,4,9-tetrahydro-3-[(2-naphthalenyl-acetyl)amino]-1H-carbazole-3-carboxamide] | 3.7 | 3.6 |
| CC(C)[C@H](NC(=O)[C@]1(NC(=O)Cc2c[nH]c3ccccc23)CCc2[nH]c3ccccc3c2C1)C(N)=O [Compound 164b, (3S)-N-[(1S)-1-(Aminocarbonyl)-2-methyl-propyl]-2,3,4,9-tetrahydro-3-[(1H-indol-3-yl-acetyl)amino]-1H-carbazole-3-carboxamide] | 6 | 6.5 |
| CC(C)[C@H](NC(=O)[C@@]1(NC(=O)Cc2ccc(Cl)cc2)CCc2[nH]c3ccccc3c2C1)C(N)=O [Compound 167a, (3R)-N-[(1S)-1-(Aminocarbonyl)-2-methyl-propyl]-3-[[(4-chlorophenyl)acetyl]amino]-2,3,4,9-tetrahydro-1H-carbazole-3-carboxamide] | 1 | 2.6 |
| COc1ccc(CC(=O)NC2(C(=O)N[C@H](C(N)=O)C(C)C)CCc3[nH]c4ccccc4c3C2)cc1 (stereo partly drawn) [Compound 175, N-[(1S)-1-(Aminocarbonyl)-2-methylpropyl]-2,3,4,9-tetrahydro-3-[[(4-methoxyphenyl)-acetyl]amino]-1H-carbazole-3-carboxamide] | 8 | 1.8 |
| CC[C@H](C)[C@H](NC(=O)OCc1ccccc1)C(=O)N[C@]1(C(=O)N2CCC[C@H]2C(N)=O)CCc2[nH]c3ccccc3c2C1 [Compound 181a, Phenylmethyl [(1S,2S)-1-[[[(3R)-3-[[(2S)-2-(aminocarbonyl)-1-pyrrolidinyl]carbonyl]-2,3,4,9-tetrahydro-1H-carbazol-3-yl]amino]-carbonyl]-2-methylbutyl]carbamate] | 0.7 | 3 |
| CC[C@H](C)[C@H](NC(=O)OCc1ccccc1)C(=O)N[C@]1(C(=O)N[C@H](C(N)=O)C(C)C)CCc2[nH]c3c(Cl)cc(Cl)cc3c2C1 [Compound 184a, Phenylmethyl [(1S,2S)-1-[[[(3R)-3-[[[(1S)-1-(aminocarbonyl)-2-methylpropyl]amino]-carbonyl]-6,8-dichloro-2,3,4,9-tetrahydro-1H-carbazol-3-yl]amino]carbonyl]-2-methylbutyl]-carbamate] | 0.015 | 0.045 |
